The text below walks through data of US9624206B2, “Antibacterial 1H-indazole and 1H-indole derivatives” (priority 2013, dated 2017).

SMILES strings stand for the structures. Converted amounts (≈) assume the structure as drawn. A value given as a limit tells only on which side of the number the result lay.

Test in all cases: Bacterial growth minimal inhibitory concentration (microdilution, CLSI M7-A7)
Holding throughout (format): cell-based

For assay [1], the system named is Acinetobacter baumannii T6474. The note with it: multiply-resistant strain (in particular quinolone-resistant), cation-adjusted Mueller-Hinton Broth; for MIC: Acinetobacter baumannii, T6474. The procedure:
(§1) Minimal Inhibitory Concentrations (MICs; mg/L) were determined in cation-adjusted Mueller-Hinton Broth by a microdilution method following the description given in “Methods for Dilution Antimicrobial Susceptibility Tests for Bacteria that Grow Aerobically”, Approved standard, 7th ed., Clinical and Laboratory Standards Institute (CLSI) Document M7-A7, Wayne, Pa., USA (2006).
(§2) All Example compounds were tested against several Gram-positive and Gram-negative bacteria. […] K. pneumoniae A-651 and Acinetobacter baumannii T6474 are multiply-resistant strains (in particular quinolone-resistant), while E. coli ATCC25922 and P. aeruginosa ATCC27853 are quinolone-sensitive strains.

Another assay has as its system K. pneumoniae A-651. The conditions noted are these: multiply-resistant strain (in particular quinolone-resistant), cation-adjusted Mueller-Hinton Broth; for MIC: Klebsiella pneumoniae, A651. How it is done: as §1, §2
The test system of the next assay is E. coli ATCC25922. The conditions noted are these: quinolone-sensitive strain, cation-adjusted Mueller-Hinton Broth; for MIC: Escherichia coli, ATCC25922. The procedure:
as §1, §2

The test system of another assay is P. aeruginosa ATCC27853. The conditions noted are these: quinolone-sensitive strain, cation-adjusted Mueller-Hinton Broth; for MIC: Pseudomonas aeruginosa, ATCC27853. How it is done: as §1, §2

What is called MIC is the smallest concentration in the dilution series that meets the test's criterion for growth inhibition. Low values mean a more susceptible organism, high ones a less susceptible organism. On to `C[C@@](CCn1ccc2cc(C#CC#C[C@@H]3C[C@H]3CO)ccc21)(C(=O)NO)S(C)(=O)=O` [Example 18, (R)—N-hydroxy-4-(5-(((1R,2R)-2-(hydroxymethyl)cyclopropyl)buta-1,3-diyn-1-yl)-1H-indol-1-yl)-2-methyl-2-(methylsulfonyl)butanamide], for which the MIC in assay [1] was 16 µg/mL (≈ 37.3 µM); against K. pneumoniae A-651, at most 0.063 µg/mL; against E. coli ATCC25922 it was at most 0.063 µg/mL; against P. aeruginosa ATCC27853 it was 0.5 µg/mL (≈ 1.17 µM).

For `CSc1ccc(-c2ccc3c(ccn3CCC(C)(C(=O)NO)S(C)(=O)=O)c2)c(F)c1` (racemic) [RE10, (RS)-4-(5-(2-fluoro-4-(methylthio)phenyl)-1H-indol-1-yl)-N-hydroxy-2-methyl-2-(methylsulfonyl)butanamide], the MIC came out at 4 µg/mL (≈ 8.88 µM) in assay [1], 0.5 µg/mL (≈ 1.11 µM) with K. pneumoniae A-651, 2 µg/mL (≈ 4.44 µM) against E. coli ATCC25922 and 8 µg/mL (≈ 17.8 µM) against P. aeruginosa ATCC27853.

With `CC(CCn1ncc2cc(CCc3ccccc3)ccc21)(C(=O)NO)S(C)(=O)=O` (racemic) [RE4, (RS)—N-hydroxy-2-methyl-2-(methylsulfonyl)-4-(5-phenethyl-1H-indazol-1-yl)butanamide], the MIC in assay [1] stood at 8 µg/mL (≈ 19.3 µM); with K. pneumoniae A-651, 0.5 µg/mL (≈ 1.2 µM); against E. coli ATCC25922 it was 2 µg/mL (≈ 4.81 µM); against P. aeruginosa ATCC27853 it was 8 µg/mL (≈ 19.3 µM).

For `CC(CCn1ncc2cc(-c3ccc(OC(F)(F)F)cc3)ccc21)(C(=O)NO)S(C)(=O)=O` (racemic) [RE7, (RS)—N-hydroxy-2-methyl-2-(methylsulfonyl)-4-(5-(4-(trifluoromethoxy)phenyl)-1H-indazol-1-yl)butanamide], the MIC was determined as 8 µg/mL (≈ 17 µM) in assay [1], 1 µg/mL (≈ 2.12 µM) in the assay with K. pneumoniae A-651, 4 µg/mL (≈ 8.48 µM) in the assay on E. coli ATCC25922 and 8 µg/mL (≈ 17 µM) against P. aeruginosa ATCC27853.

`C[C@@](CCn1ccc2cc(C#Cc3ccc(CO)cc3F)ccc21)(C(=O)NO)S(C)(=O)=O` [Example 43, (R)-4-(5-((2-fluoro-4-(hydroxymethyl)phenyl)ethynyl)-1H-indol-1-yl)-N-hydroxy-2-methyl-2-(methylsulfonyl)butanamide]: the MIC in assay [1] came to 16 µg/mL (≈ 34.9 µM); against K. pneumoniae A-651 it was 0.5 µg/mL (≈ 1.09 µM); in the assay on E. coli ATCC25922 it was 0.5 µg/mL (≈ 1.09 µM); with P. aeruginosa ATCC27853, 1 µg/mL (≈ 2.18 µM).

In the case of `CC(C)(O)C#CC#Cc1ccc2c(cnn2CC[C@](C)(C(=O)NO)S(C)(=O)=O)c1` [Example 7, (R)—N-hydroxy-4-(5-(5-hydroxy-5-methylhexa-1,3-diyn-1-yl)-1H-indazol-1-yl)-2-methyl-2-(methylsulfonyl)butanamide], the MIC is 32 µg/mL (≈ 76.6 µM) in assay [1], 1 µg/mL (≈ 2.4 µM) in the assay on K. pneumoniae A-651, 0.5 µg/mL (≈ 1.2 µM) against E. coli ATCC25922 and 2 µg/mL (≈ 4.79 µM) in the assay on P. aeruginosa ATCC27853.

`C[C@@](CCn1ncc2cc(C#CC#CC3(CN)CC3)ccc21)(C(=O)NO)S(C)(=O)=O` [Example 54, (R)-4-(5-((1-(aminomethyl)cyclopropyl)buta-1,3-diyn-1-yl)-1H-indazol-1-yl)-N-hydroxy-2-methyl-2-(methylsulfonyl)butanamide]: the MIC in assay [1] was over 32 µg/mL; in the assay on K. pneumoniae A-651 it was 16 µg/mL (≈ 37.3 µM); with E. coli ATCC25922, 8 µg/mL (≈ 18.7 µM); in the assay on P. aeruginosa ATCC27853, 8 µg/mL (≈ 18.7 µM).

On to `C[C@@H](O)c1ccc(C#Cc2ccc3c(cnn3CC[C@](C)(C(=O)NO)S(C)(=O)=O)c2)cc1.Cl` [Example 16, (R)—N-hydroxy-4-(5-((4-((R)-1-hydroxyethyl)phenyl)ethynyl)-1H-indazol-1-yl)-2-methyl-2-(methylsulfonyl)butanamide hydrochloride], for which the MIC in assay [1] is 0.25 µg/mL; in the assay on K. pneumoniae A-651, 0.125 µg/mL; in the assay on E. coli ATCC25922 it was at most 0.063 µg/mL; against P. aeruginosa ATCC27853 it was 1 µg/mL.

Turning to `C[C@@](CCn1ncc2c(F)c(C#Cc3ccc(C4(CO)COC4)cc3)ccc21)(C(=O)NO)S(C)(=O)=O` [Example 40, (R)-4-(4-fluoro-5-((4-(3-(hydroxymethyl)oxetan-3-yl)phenyl)ethynyl)-1H-indazol-1-yl)-N-hydroxy-2-methyl-2-(methylsulfonyl)butanamide], the MIC in assay [1] is 0.5 µg/mL (≈ 0.97 µM); with K. pneumoniae A-651, 1 µg/mL (≈ 1.94 µM); against E. coli ATCC25922, 0.5 µg/mL (≈ 0.97 µM); in the assay with P. aeruginosa ATCC27853 it was 4 µg/mL (≈ 7.76 µM).

As to `C[C@@](CCn1ncc2cc(C#CC#C[C@@H]3C[C@@H](O)[C@@H](O)C3)ccc21)(C(=O)NO)S(C)(=O)=O` [Example 51, (R)-4-(5-(((1s,3R,4S)-3,4-dihydroxycyclopentyl)buta-1,3-diyn-1-yl)-1H-indazol-1-yl)-N-hydroxy-2-methyl-2-(methylsulfonyl)butanamide], in assay [1], the “MIC for A. Baumannii T6474” value is 4 µg/mL. Moreover, the “MIC for K. Pneumoniae A-651” value with K. pneumoniae A-651 stood at 1 µg/mL. Besides, the “MIC for E. coli ATCC25922” value against E. coli ATCC25922 is 0.5 µg/mL. Further, in the assay with P. aeruginosa ATCC27853, the “MIC for P. aeruginosa ATCC27853” value worked out at 1 µg/mL.

As to `C[C@@](CCn1ncc2c(F)c(C#CC#CC3(CO)CC3)ccc21)(C(=O)NO)S(C)(=O)=O` [Example 39, (R)-4-(4-fluoro-5-((1-(hydroxymethyl)cyclopropyl)buta-1,3-diyn-1-yl)-1H-indazol-1-yl)-N-hydroxy-2-methyl-2-(methylsulfonyl)butanamide], the MIC turned out to be 32 µg/mL (≈ 71.5 µM) in assay [1], 0.5 µg/mL (≈ 1.12 µM) against K. pneumoniae A-651, 0.25 µg/mL (≈ 0.559 µM) against E. coli ATCC25922 and 2 µg/mL (≈ 4.47 µM) against P. aeruginosa ATCC27853.

In the case of `COc1cccc(-c2ccc3c(cnn3CCC(C)(C(=O)NO)S(C)(=O)=O)c2)c1F` (racemic) [RE2, (RS)-4-(5-(2-fluoro-3-methoxyphenyl)-1H-indazol-1-yl)-N-hydroxy-2-methyl-2-(methylsulfonyl)butanamide], the MIC in assay [1] came to 32 µg/mL (≈ 73.5 µM); against K. pneumoniae A-651, 16 µg/mL (≈ 36.7 µM); in the assay with E. coli ATCC25922 it was 8 µg/mL (≈ 18.4 µM); against P. aeruginosa ATCC27853, 16 µg/mL (≈ 36.7 µM).

For the compound `CC(CCn1ccc2c(F)c(C#Cc3ccc(C4(O)COC4)cc3)ccc21)(C(=O)NO)S(C)(=O)=O` (racemic) [RE13, (RS)-4-(4-fluoro-5-((4-(3-hydroxyoxetan-3-yl)phenyl)ethynyl)-1H-indol-1-yl)-N-hydroxy-2-methyl-2-(methylsulfonyl)butanamide], the MIC in assay [1] was 4 µg/mL (≈ 7.99 µM); with K. pneumoniae A-651 it was 0.5 µg/mL (≈ 0.999 µM); in the assay on E. coli ATCC25922, 0.25 µg/mL (≈ 0.499 µM); against P. aeruginosa ATCC27853, 2 µg/mL (≈ 4 µM).

Regarding `C[C@@](CCn1ncc2c(F)c(C#Cc3ccc(C4(O)COC4)cc3)ccc21)(C(=O)NO)S(C)(=O)=O` [Example 30, (R)-4-(4-fluoro-5-((4-(3-hydroxyoxetan-3-yl)phenyl)ethynyl)-1H-indazol-1-yl)-N-hydroxy-2-methyl-2-(methylsulfonyl)butanamide], the MIC in assay [1] is 0.125 µg/mL (≈ 0.249 µM); in the assay with K. pneumoniae A-651 it was 0.5 µg/mL (≈ 0.997 µM); in the assay with E. coli ATCC25922, 0.25 µg/mL (≈ 0.498 µM); in the assay with P. aeruginosa ATCC27853, 1 µg/mL (≈ 1.99 µM).

Consider `C[C@H](O)c1ccc(C#Cc2ccc3c(cnn3CC[C@](C)(C(=O)NO)S(C)(=O)=O)c2)cc1` [Example 23, (R)—N-hydroxy-4-(5-((4-((S)-1-hydroxyethyl)phenyl)ethynyl)-1H-indazol-1-yl)-2-methyl-2-(methylsulfonyl)butanamide], for which the MIC in assay [1] is 0.125 µg/mL (≈ 0.274 µM); against K. pneumoniae A-651 it was 0.5 µg/mL (≈ 1.1 µM); in the assay on E. coli ATCC25922, 0.125 µg/mL (≈ 0.274 µM); against P. aeruginosa ATCC27853 it was 1 µg/mL (≈ 2.2 µM).

Take `C[C@@](CCn1ncc2cc(C#CC#CC3(O)CSC3)ccc21)(C(=O)NO)S(C)(=O)=O` [Example 13, (R)—N-hydroxy-4-(5-((3-hydroxythietan-3-yl)buta-1,3-diyn-1-yl)-1H-indazol-1-yl)-2-methyl-2-(methylsulfonyl)butanamide]: the MIC worked out at 8 µg/mL (≈ 17.9 µM) in assay [1], 0.25 µg/mL (≈ 0.559 µM) against K. pneumoniae A-651, 0.25 µg/mL (≈ 0.559 µM) in the assay on E. coli ATCC25922 and 1 µg/mL (≈ 2.23 µM) against P. aeruginosa ATCC27853.

In the case of `C[C@@](CCn1ncc2cc(C#CC#C[C@@H]3C[C@H]3CO)ccc21)(C(=O)NO)S(C)(=O)=O` [Example 42, (R)—N-hydroxy-4-(5-(((1R,2R)-2-(hydroxymethyl)cyclopropyl)buta-1,3-diyn-1-yl)-1H-indazol-1-yl)-2-methyl-2-(methylsulfonyl)butanamide], the MIC in assay [1] was 32 µg/mL (≈ 74.5 µM); in the assay on K. pneumoniae A-651, 0.25 µg/mL (≈ 0.582 µM); against E. coli ATCC25922, at most 0.063 µg/mL; against P. aeruginosa ATCC27853, 0.5 µg/mL (≈ 1.16 µM).

Regarding `C[C@@](CCn1ncc2cc(C#Cc3ccc(C4(O)COC4)cc3)ccc21)(C(=O)NO)S(C)(=O)=O` [Example 12, (R)—N-hydroxy-4-(5-((4-(3-hydroxyoxetan-3-yl)phenyl)ethynyl)-1H-indazol-1-yl)-2-methyl-2-(methylsulfonyl)butanamide], the MIC came out at 0.25 µg/mL (≈ 0.517 µM) in assay [1], 0.25 µg/mL (≈ 0.517 µM) with K. pneumoniae A-651, 0.25 µg/mL (≈ 0.517 µM) against E. coli ATCC25922 and 1 µg/mL (≈ 2.07 µM) in the assay with P. aeruginosa ATCC27853.

With `C[C@@](CCn1ncc2cc(C#CC#CC34CC(CO)(C3)C4)ccc21)(C(=O)NO)S(C)(=O)=O` [Example 53, (R)—N-hydroxy-4-(5-((3-(hydroxymethyl)bicyclo[1.1.1]pentan-1-yl)buta-1,3-diyn-1-yl)-1H-indazol-1-yl)-2-methyl-2-(methylsulfonyl)butanamide], the MIC is 1 µg/mL (≈ 2.2 µM) in assay [1], 0.25 µg/mL (≈ 0.549 µM) in the assay on K. pneumoniae A-651, 0.125 µg/mL (≈ 0.274 µM) in the assay with E. coli ATCC25922 and 1 µg/mL (≈ 2.2 µM) in the assay with P. aeruginosa ATCC27853.

On to `CSc1ccc(-c2ccc3c(cnn3CC[C@](C)(C(=O)NO)S(C)(=O)=O)c2)c(F)c1` [Example 1, (R)-4-(5-(2-fluoro-4-(methylthio)phenyl)-1H-indazol-1-yl)-N-hydroxy-2-methyl-2-(methylsulfonyl)butanamide], for which the MIC in assay [1] was 16 µg/mL (≈ 35.4 µM); in the assay with K. pneumoniae A-651, 0.25 µg/mL (≈ 0.554 µM); against E. coli ATCC25922, at most 0.063 µg/mL; against P. aeruginosa ATCC27853 it was 4 µg/mL (≈ 8.86 µM).
